Experimental data from ChEMBL document CHEMBL3526109 (Drug Metab Dispos, 2011).
Values belong to the molecule of their own block, whether it stands above or below them.

Key:
Conditions in all cases: in vivo
Rattus norvegicus [1] = experiment: Total drug recovery in Sprague-Dawley rat at 100 mg/kg, po administered as single dose via gavage measured during 0 to 168 hrs by liquid scintillation counting; assay type: ADME, organism-based
[2] = Drug recovery in bile duct-cannulated rat urine at 100 mg/kg, po administered as single dose via gavage measured during 0 to 48 hrs by liquid scintillation counting; assay type: ADME, organism-based
[3] = Drug recovery in bile duct-cannulated cynomolgus monkey feces at 10 mg/kg, po administered as single dose via gavage measured during 0 to 72 hrs by liquid scintillation counting; assay type: ADME, organism-based, Macaca fascicularis
Cynomolgus monkey [4] = experiment: AUC (0 to 12 hrs) as total radioactivity in cynomolgus monkey plasma at 10 mg/kg, po administered as single oral dose by HPLC analysis; assay type: ADME, organism-based, Macaca fascicularis
[5] = Drug recovery in human feces at 800 mg, po administered as single dose via gavage measured during 0 to 288 hrs by liquid scintillation counting; assay type: ADME, organism-based
Cynomolgus monkey [6] = experiment: Total drug recovery in cynomolgus monkey at 10 mg/kg, po administered as single dose via gavage measured during 0 to 168 hrs by liquid scintillation counting; assay type: ADME, organism-based, Macaca fascicularis
[7] = Drug recovery in bile duct-cannulated rat feces at 100 mg/kg, po administered as single dose via gavage measured during 0 to 48 hrs by liquid scintillation counting; assay type: ADME, organism-based
Homo sapiens [8] = experiment: AUC (0 to t) as total radioactivity in human plasma treated at 800 mg, po administered as single dose […] by mass spectrometry; assay type: ADME, organism-based
Rattus norvegicus [9] = experiment: Tmax of total radioactivity in Sprague-Dawley rat plasma treated at 100 mg/kg, po administered as single dose via gavage by liquid scintillation counting; assay type: ADME, organism-based
Homo sapiens [10] = experiment: Tmax of total radioactivity in human plasma treated at 800 mg, po administered as single dose […] by mass spectrometry; assay type: ADME, organism-based
[11] = Drug recovery in cynomolgus monkey urine at 10 mg/kg, po administered as single dose via gavage measured during 0 to 168 hrs by liquid scintillation counting; assay type: ADME, organism-based, Macaca fascicularis
Rattus norvegicus [12] = experiment: Total drug recovery in bile duct-cannulated rat at 100 mg/kg, po administered as single dose via gavage measured during 0 to 48 hrs by liquid scintillation counting; assay type: ADME, organism-based
Homo sapiens [13] = experiment: Cmax as total radioactivity in human plasma treated at 800 mg, po administered as single dose […] by mass spectrometry; assay type: ADME, organism-based
[14] = Drug recovery in bile duct-cannulated cynomolgus monkey urine at 10 mg/kg, po administered as single dose via gavage measured during 0 to 72 hrs by liquid scintillation counting; assay type: ADME, organism-based, Macaca fascicularis
Rattus norvegicus [15] = experiment: AUC (0 to t) as total radioactivity in Sprague-Dawley rat plasma treated at 100 mg/kg, po administered as single dose via gavage by liquid scintillation counting; assay type: ADME, organism-based
Cynomolgus monkey [16] = experiment: Tmax of total radioactivity in cynomolgus monkey plasma treated at 10 mg/kg, po administered as single dose via gavage by liquid scintillation counting; assay type: ADME, organism-based, Macaca fascicularis
Rattus norvegicus [17] = experiment: AUC (0 to 6 hrs) as total radioactivity in Sprague-Dawley rat plasma at 100 mg/kg, po administered as single oral dose by HPLC analysis; assay type: ADME, organism-based
Cynomolgus monkey [18] = experiment: Total drug recovery in bile duct-cannulated cynomolgus monkey at 10 mg/kg, po administered as single dose via gavage measured during 0 to 72 hrs by liquid scintillation counting; assay type: ADME, organism-based, Macaca fascicularis
[19] = Drug recovery in human urine at 800 mg, po administered as single dose via gavage measured during 0 to 288 hrs by liquid scintillation counting; assay type: ADME, organism-based
[20] = Drug recovery in cynomolgus monkey feces at 10 mg/kg, po administered as single dose via gavage measured during 0 to 168 hrs by liquid scintillation counting; assay type: ADME, organism-based, Macaca fascicularis
Cynomolgus monkey [21] = experiment: Cmax as total radioactivity in cynomolgus monkey plasma treated at 10 mg/kg, po administered as single dose via gavage by liquid scintillation counting; assay type: ADME, organism-based, Macaca fascicularis
[22] = Drug recovery in Sprague-Dawley rat feces at 100 mg/kg, po administered as single dose via gavage measured during 0 to 168 hrs by liquid scintillation counting; assay type: ADME, organism-based
[23] = Drug recovery in bile duct-cannulated rat bile at 100 mg/kg, po administered as single dose via gavage measured during 0 to 48 hrs by liquid scintillation counting; assay type: ADME, organism-based
Homo sapiens [24] = experiment: AUC (0 to 12 hrs) as total radioactivity in human plasma at 800 mg, po administered as single oral dose by HPLC analysis; assay type: ADME, organism-based
[25] = Drug recovery in bile duct-cannulated cynomolgus monkey bile at 10 mg/kg, po administered as single dose via gavage measured during 0 to 72 hrs by liquid scintillation counting; assay type: ADME, organism-based, Macaca fascicularis
Homo sapiens [26] = experiment: Total drug recovery in human at 800 mg, po administered as single dose […] measured during 0 to 288 hrs by liquid scintillation counting; assay type: ADME, organism-based
[27] = Drug recovery in Sprague-Dawley rat urine at 100 mg/kg, po administered as single dose via gavage measured during 0 to 168 hrs by liquid scintillation counting; assay type: ADME, organism-based
Cynomolgus monkey [28] = experiment: AUC (0 to t) as total radioactivity in cynomolgus monkey plasma treated at 10 mg/kg, po administered as single dose via gavage by liquid scintillation counting; assay type: ADME, organism-based, Macaca fascicularis
Rattus norvegicus [29] = experiment: Cmax as total radioactivity in Sprague-Dawley rat plasma treated at 100 mg/kg, po administered as single dose via gavage by liquid scintillation counting; assay type: ADME, organism-based
[30] = Drug level in bile duct-cannulated rat bile treated with [14C]brivanib alaninate at 100 mg/kg, po administered as single dose via gavage by mass spectrometry; assay type: ADME, organism-based
Plasma [31] = experiment: Drug level in cynomolgus monkey plasma assessed as compound formation treated with [14C]brivanib alaninate at 10 mg/kg, po administered as single dose via gavage measured after 6 hrs by mass spectrometry; assay type: ADME, organism-based, Macaca fascicularis
[32] = Drug excretion in cynomolgus monkey urine treated with [14C]brivanib alaninate at 10 mg/kg, po administered as single dose via gavage by HPLC analysis; assay type: ADME, organism-based, Macaca fascicularis
[33] = Drug level in bile duct-cannulated cynomolgus monkey bile treated with [14C]brivanib alaninate at 10 mg/kg, po administered as single dose via gavage by mass spectrometry; assay type: ADME, organism-based, Macaca fascicularis
Plasma [34] = experiment: Drug level in Sprague-Dawley rat plasma assessed as compound formation treated with [14C]brivanib alaninate at 100 mg/kg, po administered as single dose via gavage measured after 2 hrs by mass spectrometry; assay type: ADME, organism-based
Plasma [35] = experiment: Drug level in cynomolgus monkey plasma assessed as compound formation treated with [14C]brivanib alaninate at 10 mg/kg, po administered as single dose via gavage measured after 1 hr by mass spectrometry; assay type: ADME, organism-based, Macaca fascicularis
[36] = Drug excretion in cynomolgus monkey feces treated with [14C]brivanib alaninate at 10 mg/kg, po administered as single dose via gavage by HPLC analysis; assay type: ADME, organism-based, Macaca fascicularis
Plasma [37] = experiment: Drug level in Sprague-Dawley rat plasma assessed as compound formation treated with [14C]brivanib alaninate at 100 mg/kg, po administered as single dose via gavage measured after 6 hrs by mass spectrometry; assay type: ADME, organism-based
Plasma [38] = experiment: Drug level in cynomolgus monkey plasma assessed as compound formation treated with [14C]brivanib alaninate at 10 mg/kg, po administered as single dose via gavage measured after 2 hrs by mass spectrometry; assay type: ADME, organism-based, Macaca fascicularis
[39] = Drug excretion in human urine treated with [14C]brivanib alaninate at 800 mg, po administered as single dose […] by HPLC analysis; assay type: ADME, organism-based
[40] = Drug excretion in Sprague-Dawley rat urine treated with [14C]brivanib alaninate at 100 mg/kg, po administered as single dose via gavage by HPLC analysis; assay type: ADME, organism-based
Plasma [41] = experiment: Drug level in human plasma assessed as compound formation treated with [14C]brivanib alaninate at 800 mg, po administered as single dose via gavage measured after 1 hr by mass spectrometry; assay type: ADME, organism-based
[42] = Drug excretion in human feces treated with [14C]brivanib alaninate at 800 mg, po administered as single dose […] by HPLC analysis; assay type: ADME, organism-based
Plasma [43] = experiment: Drug level in human plasma assessed as compound formation treated with [14C]brivanib alaninate at 800 mg, po administered as single dose via gavage measured after 8 hrs by mass spectrometry; assay type: ADME, organism-based
Plasma [44] = experiment: Drug level in cynomolgus monkey plasma assessed as compound formation treated with [14C]brivanib alaninate at 10 mg/kg, po administered as single dose via gavage measured after 12 hrs by mass spectrometry; assay type: ADME, organism-based, Macaca fascicularis
Plasma [45] = experiment: Drug level in human plasma assessed as compound formation treated with [14C]brivanib alaninate at 800 mg, po administered as single dose via gavage measured after 2 hrs by mass spectrometry; assay type: ADME, organism-based
[46] = Drug excretion in Sprague-Dawley rat feces treated with [14C]brivanib alaninate at 100 mg/kg, po administered as single dose via gavage by HPLC analysis; assay type: ADME, organism-based
Plasma [47] = experiment: Drug level in Sprague-Dawley rat plasma assessed as compound formation treated with [14C]brivanib alaninate at 100 mg/kg, po administered as single dose via gavage measured after 1 hr by mass spectrometry; assay type: ADME, organism-based
Plasma [48] = experiment: Drug level in human plasma assessed as compound formation treated with [14C]brivanib alaninate at 800 mg, po administered as single dose via gavage measured after 4 hrs by mass spectrometry; assay type: ADME, organism-based
Plasma [49] = experiment: Drug level in human plasma assessed as compound formation treated with [14C]brivanib alaninate at 800 mg, po administered as single dose via gavage measured after 12 hrs by mass spectrometry; assay type: ADME, organism-based
Plasma [50] = experiment: Drug level in cynomolgus monkey plasma assessed as compound formation treated with [14C]brivanib alaninate at 10 mg/kg, po administered as single dose via gavage measured after 4 hrs by mass spectrometry; assay type: ADME, organism-based, Macaca fascicularis

Radiolabel recovery (Rattus norvegicus [1]): 93.68%
Radiolabel recovery [2]: 7.33%
Radiolabel recovery [3]: 26.41%
AUC (Cynomolgus monkey [4]): 69315 ugequiv/l.hr
Radiolabel recovery [5]: 81.54%
Radiolabel recovery (Cynomolgus monkey [6]): 89.79%
Radiolabel recovery [7]: 3.31%
AUCt (Homo sapiens [8]): 203.8 µg·h/mL
Tmax (Rattus norvegicus [9]): 2 h
Tmax (Homo sapiens [10]): 1 h
Radiolabel recovery [11]: 10.3%
Radiolabel recovery (Rattus norvegicus [12]): 88.99%
Cmax (Homo sapiens [13]): 9400 ng/mL
Radiolabel recovery [14]: 3.56%
AUCt (Rattus norvegicus [15]): 250 µg·h/mL
Tmax (Cynomolgus monkey [16]): 2 h
AUC (Rattus norvegicus [17]): 139766 ugequiv/l.hr
Radiolabel recovery (Cynomolgus monkey [18]): 81.43%
Radiolabel recovery [19]: 12.18%
Radiolabel recovery [20]: 76.31%
Cmax (Cynomolgus monkey [21]): 9700 ng/mL
Radiolabel recovery [22]: 83.58%
Radiolabel recovery [23]: 78.35%
AUC (Homo sapiens [24]): 65627.4 ugequiv/l.hr
Radiolabel recovery [25]: 47.66%
Radiolabel recovery (Homo sapiens [26]): 93.72%
Radiolabel recovery [27]: 9.46%
AUCt (Cynomolgus monkey [28]): 90.3 µg·h/mL
Cmax (Rattus norvegicus [29]): 35200 ng/mL
SMILES: Cc1cc2c(F)c(Oc3n[14cH]nn4cc(OC[C@@H](C)OC(=O)[C@H](C)N)c(C)c34)ccc2[nH]1

Compound recovery [30]: metabolite_detected
Compound recovery (Plasma [31]): metabolite_detected
Compound recovery [32]: metabolite_not_detected
Compound recovery [33]: metabolite_detected
Compound recovery (Plasma [34]): metabolite_detected
Compound recovery (Plasma [35]): metabolite_detected
Compound recovery [36]: metabolite_not_detected
Compound recovery (Plasma [37]): metabolite_detected
Compound recovery (Plasma [38]): metabolite_detected
Compound recovery [39]: metabolite_not_detected
Compound recovery [40]: metabolite_not_detected
Compound recovery (Plasma [41]): metabolite_detected
Compound recovery [42]: metabolite_not_detected
Compound recovery (Plasma [43]): metabolite_detected
Compound recovery (Plasma [44]): metabolite_detected
Compound recovery (Plasma [45]): metabolite_detected
Compound recovery [46]: metabolite_not_detected
Compound recovery (Plasma [47]): metabolite_detected
Compound recovery (Plasma [48]): metabolite_detected
Compound recovery (Plasma [49]): metabolite_detected
Compound recovery (Plasma [50]): metabolite_detected
SMILES: CC(=O)COc1cn2ncnc(Oc3ccc4[nH]c(C)cc4c3F)c2c1C
